Data set [1] has as its system Mus musculus. Briefly: Anticonvulsant activity in Swiss mouse at 30 mg/kg, ip after 0.5 hrs by MES test. It is filed as functional, organism-based. Details: dose 30 mg/kg.
The test system of data set [2] is Mus musculus. Kind of data set: Anticonvulsant activity in Swiss mouse at 30 mg/kg, po after 0.5 hrs by MES test. It is filed as functional, organism-based. Details: dose 30 mg/kg.
For data set [3], the system named is Mus musculus. Kind of data set: Anticonvulsant activity in Swiss mouse at 100 mg/kg, ip after 0.5 hrs by MES test. It is filed as functional, organism-based. Details: dose 100 mg/kg.
For data set [4], the system named is Mus musculus. Kind of data set: Anticonvulsant activity in Swiss mouse at 100 mg/kg, po after 0.5 hrs by MES test. It counts as functional, organism-based. Details: dose 100 mg/kg.
Data set [5] relates to Mus musculus. Kind of data set: Anticonvulsant activity in Swiss mouse at 30 mg/kg, ip after 0.5 hrs by PTZ test. It is filed as functional, organism-based. Details: dose 30 mg/kg.
Data set [6] has as its system Mus musculus. Kind of data set: Anticonvulsant activity in Swiss mouse at 30 mg/kg, po after 0.5 hrs by PTZ test. Details: dose 30 mg/kg. It counts as functional, organism-based.
The subject of data set [7] is Mus musculus. Briefly: Anticonvulsant activity in Swiss mouse at 100 mg/kg, ip after 0.5 hrs by PTZ test. It counts as functional, organism-based. Details: dose 100 mg/kg.
Data set [8] concerns Mus musculus. Briefly: Anticonvulsant activity in Swiss mouse at 100 mg/kg, po after 0.5 hrs by PTZ test. It counts as functional, organism-based. Details: dose 100 mg/kg.
Data set [9] has as its system Mus musculus. Briefly: Anticonvulsant activity in Swiss mouse at 30 mg/kg, ip after 4 hrs by PTZ test. Details: dose 30 mg/kg. It is filed as functional, organism-based.
Data set [10] has as its system Mus musculus. Briefly: Anticonvulsant activity in Swiss mouse at 30 mg/kg, po after 4 hrs by PTZ test. It is filed as functional, organism-based. Details: dose 30 mg/kg.
Data set [11] has as its system Mus musculus. Kind of data set: Anticonvulsant activity in Swiss mouse at 100 mg/kg, ip after 4 hrs by PTZ test. It is filed as functional, organism-based. Details: dose 100 mg/kg.
For data set [12], the system named is Mus musculus. Kind of data set: Anticonvulsant activity in Swiss mouse at 100 mg/kg, po after 4 hrs by PTZ test. It counts as functional, organism-based. Details: dose 100 mg/kg.
Data set [13] deals with Mus musculus. Briefly: Neurotoxicity against Swiss mouse at 30 mg/kg, ip after 0.5 hrs by rotarod test. It counts as toxicity, organism-based. Details: dose 30 mg/kg, route intraperitoneal. The following applies: in vivo. A general note: In the rotarod test animals must keep their balance on a rotating rod.
Data set [14] deals with Mus musculus. Briefly: Neurotoxicity against Swiss mouse at 30 mg/kg, po after 0.5 hrs by rotarod test. It is filed as toxicity, organism-based. Details: dose 30 mg/kg, route oral. The following applies: in vivo.
Data set [15] concerns Mus musculus. Kind of data set: Neurotoxicity against Swiss mouse at 100 mg/kg, ip after 0.5 hrs by rotarod test. It is filed as toxicity, organism-based. Details: dose 100 mg/kg, route intraperitoneal. The following applies: in vivo.
The test system of data set [16] is Mus musculus. Kind of data set: Neurotoxicity against Swiss mouse at 100 mg/kg, po after 0.5 hrs by rotarod test. It is filed as toxicity, organism-based. Details: dose 100 mg/kg, route oral. The following applies: in vivo.
Data set [17] relates to Mus musculus. Kind of data set: Neurotoxicity against Swiss mouse at 30 mg/kg, ip after 4 hrs by rotarod test. It counts as toxicity, organism-based. To be noted: in vivo. Details: dose 30 mg/kg, route intraperitoneal.
In data set [18] the test system is Mus musculus. Briefly: Neurotoxicity against Swiss mouse at 30 mg/kg, po after 4 hrs by rotarod test. It is filed as toxicity, organism-based. Details: dose 30 mg/kg, route oral. The following applies: in vivo.
In data set [19] the test system is Mus musculus. Kind of data set: Neurotoxicity against Swiss mouse at 100 mg/kg, ip after 4 hrs by rotarod test. It counts as toxicity, organism-based. To be noted: in vivo. Details: dose 100 mg/kg, route intraperitoneal.
For data set [20], the system named is Mus musculus. Kind of data set: Neurotoxicity against Swiss mouse at 100 mg/kg, po after 4 hrs by rotarod test. It is filed as toxicity, organism-based. Details: dose 100 mg/kg, route oral. To be noted: in vivo.
The test system of data set [21] is Mus musculus. Kind of data set: Anticonvulsant activity in Swiss mouse at 30 mg/kg, ip after 4 hrs by MES test. It counts as functional, organism-based. Details: dose 30 mg/kg.
Data set [22] concerns Mus musculus. Briefly: Anticonvulsant activity in Swiss mouse at 30 mg/kg, po after 4 hrs by MES test. It is filed as functional, organism-based. Details: dose 30 mg/kg.
The test system of data set [23] is Mus musculus. Kind of data set: Anticonvulsant activity in Swiss mouse at 100 mg/kg, ip after 4 hrs by MES test. It counts as functional, organism-based. Details: dose 100 mg/kg.
The test system of data set [24] is Mus musculus. Kind of data set: Anticonvulsant activity in Swiss mouse at 100 mg/kg, po after 4 hrs by MES test. Details: dose 100 mg/kg. It is filed as functional, organism-based.

The text below walks through data of ChEMBL document CHEMBL1139100, “Discovery of anticonvulsant activity of abietic acid through application of linear discriminant analysis” (Bioorg Med Chem Lett, 2007).

Calls of active or inactive are those of the source. No cut-off for these calls is given here.

On to `CC(C)C1=CC2=CC[C@@H]3[C@](C)(CCC[C@@]3(C)C(=O)O)[C@H]2CC1` [ABIETIC ACID], for which the outcome in data set [1], in data set [2], in data set [3], in data set [4], in data set [5] and in [6] was inactive. In addition, the outcome in [7], in data set [8], in data set [9], in [10], in [11] and in [12] was inactive. Besides, the Activity entry in data set [13], in [14], in data set [15], in data set [16], in data set [17] and in [18] was “Non-toxic” throughout. The Activity result in data set [19] and in data set [20] was “Non-toxic” each time. For the same compound, the outcome in data set [21], in data set [22], in [23] and in data set [24] was Active.
